Experimental data reported in patent publication US8722687B2, “Imidazo [1,2-A]pyridine derivatives as FGFR kinase inhibitors for use in therapy” (Astex Therapeutics Ltd, priority 2009, dated 2014).

Experiments:
FGFR3 = molecular target: T1, FGFR3 (Homo sapiens, UniProt P22607); assay: FGFR3 in vitro kinase inhibitory activity assay; type: biochemical; details: for IC50: read-out: FGFR3 IC50(μM) or % I
T1 construct: purchased Upstate
Method: (§1) FGFR3, VEGFR2 and PDGFR in vitro Kinase Inhibitory Activity Assays
(§2) Enzymes (from Upstate), prepared at 2× final concentration, were incubated with test compounds, biotinylated Flt3 substrate (biotin-VASSDNEYFYVDF) (Cell Signalling Technology Inc.) and ATP in the appropriate assay buffer (Table 1). The reaction was allowed to proceed for 3 hours (FGFR3), 1 hour (VEGFR2, PDGFR-beta) at room temperature on a plate shaker at 700 rpm before being stopped with 35 mM EDTA, pH 8 (FGFR3, VEGFR2) or 55 mM EDTA, pH 8 (PDGFR-beta). 5× detection mix/50 mM HEPES pH 7.5, 0.1% BSA, 11.34 nM Eu-anti-pY (PY20) (PerkinElmer) 74 nM SA-XL665 (Cisbio) for FGFR3, 50 mM HEPES, pH 7.5, 0.1% BSA, 11.34 nM Eu-anti-pY (PY20), 187.5 nM SA-XL665 for VEGFR2 and 50 mM HEPES, pH 7.5, 0.1% BSA, 11.34 nM Eu-anti-pY (PT66) (PerkinElmer), 375 nM SA-XL665 (Cisbio) for PDGFR-beta) was then added to each well and the plate sealed and incubated at room temperature for one hour on a plate shaker at 700 rpm. The plate was then read on a Packard Fusion plate reader or a BMG Pherastar both in TRF mode.

Ba/F3-TEL-FGFR3 cells = molecular target: T2, Ba/F3-TEL-FGFR3 cells (Homo sapiens, UniProt P22607); assay: Ba/F3-TEL-FGFR3 cell proliferation assay (Alamar Blue); type: cell-based, murine; details: for GI50: 72 hours, read-out: BaF3-TEL-FGFR3 prolif
T2 construct: fused on or other part: TEL (ETV6) N-terminal oligomerising part fused to the FGFR3 kinase part; P41212 (Transcription factor ETV6)
Method: (§3) Ba/F3-TEL-FGFR3 & Ba/F3 (WT) Cell Proliferation Assays
(§4) Stably transfected Ba/F3-TEL-FGFR3 cells were plated out into black 96-well tissue culture plates with clear bottoms in RPMI medium containing 10% FBS and 0.25 mg/ml G418 at a density of 5×10^3 cells/well (200 μl per well). The parental wild-type Ba/F3 cells (DSMZ no.: ACC 300) were plated out into black 96-well tissue culture plates with clear bottoms in RPMI medium containing 10% FBS and 2 ng/ml mouse IL-3 (R&D Systems) at a density of 2.5×10^3 cells/well (200 μl per well). Plates were placed in an incubator overnight before adding the compounds the following day. Dilutions of compounds were made in DMSO starting at 10 mM and were diluted into the wells to give a final DMSO concentration of 0.1% in assay. Compounds were left on the cells for 72 hours before the plates were removed from the incubator and 20 μl of Alamar Blue™ (Biosource) was added to each well. Plates were placed in the incubator for 4-6 hours before reading plates at 535 nm (excitation)/590 nm (emission) on a Fusion plate reader (Packard). Where inhibition is high an IC50 can be determined.

VEGFR2 = molecular target: T3, VEGFR2 (Homo sapiens, UniProt P35968); assay: VEGFR2 in vitro kinase inhibitory activity assay; type: biochemical; details: read-out: VEGFR2 IC50(μM) or % I
T3 construct: purchased Upstate
Method: as §1, §2
Kinase Assay buffers were:
B: 50 mM HEPES pH 7.5, 6 mM MnCl2, 1 mM DTT, 0.01% TritonX-100, 0.1 mM Sodium orthovanadate

[1] = test system: human prostate cancer PC3 cells; assay: EB1 cellular assay (Eb1 Comet assay, microtubule disruption); type: cell-based; details: PC-3, lowest active concentration: Eb1 foci absent in at least 50% of treated PC3 cells, 1 hour, read-out: Eb1 LAC
Method: The Eb1 Comet assay relies on the detection of the Eb1 protein at the plus end of polymerizing microtubules (Mimori-Kiyosue, 2000) using indirect immunofluorescence. Disruption of microtubule dynamics through de-polymerization or stabilization results in a de-localization of Eb1 from the growing microtubule ends and this is visualized by the disappearance of Eb1 containing cytoplasmic foci.
Briefly, human prostate cancer PC3 cells obtained from the American Type Culture Collection were grown in 96-well plates (Greiner, cat. no. 655090) in HAM's F12 medium as recommended by the provider (ATCC). The cells were treated for 1 hour at 37° C. with compounds dissolved in DMSO (0.6% final DMSO concentration). The culture medium was then removed by aspiration and the cells were fixed by adding cold methanol (−20° C.). After a 15 minutes incubation at −20° C., the cells were washed twice with DPBS (Gibco) containing 0.5% Triton X-100. Mouse Eb1 antibody (BD Transduction Laboratories, cat. no. 610534) was added to the cells (1/250 dilution in DPBS containing 1% BSA) and incubated overnight at room temperature. The antibody was subsequently removed and the cells washed twice with DPBS, 0.5% Triton X-100. Secondary goat anti-mouse antibody conjugated to Alexa 488 fluorescent dye (Molecular Probes) was added at a 1/500 dilution in DPBS, 1% BSA and incubated for 1 hour at 37° C. The cells were washed twice with DPBS, 0.5% Triton X-100 and then DPBS containing 0.5% Triton X-100 and 1/5000 Hoechst 33342 (Molecular Probes) was added. Microscopy based Eb1 foci visualization was carried out using an IN Cell Analyser 1000 (Amersham Biosciences) using a 20× objective. Compound dependent microtubule disruption was visually determined by the disappearance in Eb1 foci. The lowest active concentration (LAC) was determined as the concentration where Eb1 foci were absent in at least 50% of the treated cells. Herein the effects of test compounds are expressed as pLAC (the negative log value of the LAC-value)

[2] = test system: parental wild-type Ba/F3 cells; assay: Ba/F3 (WT) cell proliferation assay (Alamar Blue); type: cell-based, murine; details: read-out: BaF3 WT prolif; for IC50: BaF3, 72 hours, with mouse IL-3
Method: as §3, §4

T3 sequence (P35968 20-1356): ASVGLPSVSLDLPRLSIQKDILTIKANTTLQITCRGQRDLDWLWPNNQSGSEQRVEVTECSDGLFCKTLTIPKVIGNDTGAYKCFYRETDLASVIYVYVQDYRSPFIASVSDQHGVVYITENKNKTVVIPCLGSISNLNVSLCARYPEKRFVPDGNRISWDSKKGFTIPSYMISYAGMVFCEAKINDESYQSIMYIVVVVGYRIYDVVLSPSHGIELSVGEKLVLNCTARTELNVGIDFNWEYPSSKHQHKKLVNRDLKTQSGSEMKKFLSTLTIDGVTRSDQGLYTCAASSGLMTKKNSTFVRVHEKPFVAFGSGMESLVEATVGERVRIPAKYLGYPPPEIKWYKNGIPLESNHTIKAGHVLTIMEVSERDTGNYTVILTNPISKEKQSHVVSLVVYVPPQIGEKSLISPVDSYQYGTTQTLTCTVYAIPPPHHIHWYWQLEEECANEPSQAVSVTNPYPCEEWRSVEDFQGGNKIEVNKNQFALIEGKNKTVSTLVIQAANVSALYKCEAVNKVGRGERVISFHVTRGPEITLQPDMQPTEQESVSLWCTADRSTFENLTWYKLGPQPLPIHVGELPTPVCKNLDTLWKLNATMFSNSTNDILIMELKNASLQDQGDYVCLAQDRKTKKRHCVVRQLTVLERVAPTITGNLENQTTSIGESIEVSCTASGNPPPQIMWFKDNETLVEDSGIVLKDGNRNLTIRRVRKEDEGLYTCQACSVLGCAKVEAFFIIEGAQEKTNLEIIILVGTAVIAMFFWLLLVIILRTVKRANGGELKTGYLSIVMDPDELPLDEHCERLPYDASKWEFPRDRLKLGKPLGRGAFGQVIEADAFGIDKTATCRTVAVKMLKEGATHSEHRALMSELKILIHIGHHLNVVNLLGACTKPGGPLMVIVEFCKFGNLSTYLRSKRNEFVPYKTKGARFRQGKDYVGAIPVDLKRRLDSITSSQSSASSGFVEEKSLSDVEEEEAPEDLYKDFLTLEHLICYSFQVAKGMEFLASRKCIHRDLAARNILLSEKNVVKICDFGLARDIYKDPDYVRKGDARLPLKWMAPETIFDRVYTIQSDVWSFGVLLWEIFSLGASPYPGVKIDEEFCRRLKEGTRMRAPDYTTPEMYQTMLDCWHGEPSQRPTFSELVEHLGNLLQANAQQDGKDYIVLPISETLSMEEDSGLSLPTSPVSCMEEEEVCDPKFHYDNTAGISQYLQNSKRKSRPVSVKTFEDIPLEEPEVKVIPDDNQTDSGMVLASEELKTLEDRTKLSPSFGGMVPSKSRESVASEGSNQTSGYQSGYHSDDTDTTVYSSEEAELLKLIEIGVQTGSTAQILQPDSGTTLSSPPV
T2 sequence (P22607 whole entry, change not shown, the tested form may be a part): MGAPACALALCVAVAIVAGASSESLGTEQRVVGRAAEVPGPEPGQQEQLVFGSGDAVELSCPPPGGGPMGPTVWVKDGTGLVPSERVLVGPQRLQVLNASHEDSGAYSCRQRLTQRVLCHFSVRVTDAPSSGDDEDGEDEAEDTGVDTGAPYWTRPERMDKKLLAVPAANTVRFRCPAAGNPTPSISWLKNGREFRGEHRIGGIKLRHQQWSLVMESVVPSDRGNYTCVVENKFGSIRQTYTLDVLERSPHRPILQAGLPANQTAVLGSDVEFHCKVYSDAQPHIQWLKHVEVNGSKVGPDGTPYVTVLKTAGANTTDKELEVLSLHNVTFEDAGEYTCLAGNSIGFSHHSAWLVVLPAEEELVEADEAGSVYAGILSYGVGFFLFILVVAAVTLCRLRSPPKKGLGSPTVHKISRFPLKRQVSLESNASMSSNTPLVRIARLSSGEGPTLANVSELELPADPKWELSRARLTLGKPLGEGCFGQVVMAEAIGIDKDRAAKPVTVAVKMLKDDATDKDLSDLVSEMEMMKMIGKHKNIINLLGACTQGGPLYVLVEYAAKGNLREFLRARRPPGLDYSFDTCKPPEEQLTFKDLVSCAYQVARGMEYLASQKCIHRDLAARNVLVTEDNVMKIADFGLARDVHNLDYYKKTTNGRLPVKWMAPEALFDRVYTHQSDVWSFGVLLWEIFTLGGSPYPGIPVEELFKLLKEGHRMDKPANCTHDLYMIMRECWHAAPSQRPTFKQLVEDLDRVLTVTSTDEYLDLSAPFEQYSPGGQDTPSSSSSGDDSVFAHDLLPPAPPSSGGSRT
T1 sequence (P22607 23-806): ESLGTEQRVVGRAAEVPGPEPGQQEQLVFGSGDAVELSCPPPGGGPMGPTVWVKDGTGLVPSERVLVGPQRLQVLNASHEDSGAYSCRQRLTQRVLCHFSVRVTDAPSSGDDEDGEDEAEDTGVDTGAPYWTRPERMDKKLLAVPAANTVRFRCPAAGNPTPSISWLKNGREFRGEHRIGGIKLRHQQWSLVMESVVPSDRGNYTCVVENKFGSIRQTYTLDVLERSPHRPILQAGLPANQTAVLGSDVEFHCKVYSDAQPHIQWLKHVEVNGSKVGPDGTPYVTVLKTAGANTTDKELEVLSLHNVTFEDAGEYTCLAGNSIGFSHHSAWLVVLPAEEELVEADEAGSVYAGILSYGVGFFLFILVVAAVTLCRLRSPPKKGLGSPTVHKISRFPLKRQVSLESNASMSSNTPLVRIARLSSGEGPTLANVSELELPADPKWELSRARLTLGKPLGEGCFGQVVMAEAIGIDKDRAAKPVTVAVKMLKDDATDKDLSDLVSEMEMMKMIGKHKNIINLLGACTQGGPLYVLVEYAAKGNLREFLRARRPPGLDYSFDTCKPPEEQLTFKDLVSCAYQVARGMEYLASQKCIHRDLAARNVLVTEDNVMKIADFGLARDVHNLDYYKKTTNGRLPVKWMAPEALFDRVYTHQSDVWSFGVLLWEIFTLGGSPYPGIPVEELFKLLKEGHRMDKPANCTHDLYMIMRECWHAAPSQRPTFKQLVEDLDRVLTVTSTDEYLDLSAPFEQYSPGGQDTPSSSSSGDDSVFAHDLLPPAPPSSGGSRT

| SMILES | IC50 (FGFR3) [µM] | GI50 (Ba/F3-TEL-FGFR3 cells) [nM] | IC50 (VEGFR2) [µM] | FGFR3 IC50(μM) or % I (FGFR3; % I at 0.003 (unit not given)) [% at 0.003] | BaF3-TEL-FGFR3 prolif (μM) (Ba/F3-TEL-FGFR3 cells; % at 0.100 μM) [% at 0.100 μM] | minimal effective concentration [1] [µM] | IC50 [2] [nM] | inhibition at 3 µM ([2]; Mus musculus, BaF3, 72 h, % at 3.00 μM) [%] | inhibition at 10 µM ([2]; Mus musculus, BaF3, 72 h) [%] | inhibition at 1 µM (VEGFR2; 1 h, % I at 1 μM) [%] |
| --- | --- | --- | --- | --- | --- | --- | --- | --- | --- | --- |
| CCNC(=O)Nc1cc(OC(C)C)cc(-c2cnc3cc(-c4nnc(C)s4)ccn23)c1 [Compound F-23, 1-Ethyl-3-{3-isopropoxy-5-[7-(5-methyl-[1,3,4]thiadiazol-2-yl)-imidazo[1,2-a]pyridin-3-yl]-phenyl}-urea] | 0.004 | 50 | 0.087 | – | – | 5 | – | – | 5 | – |
| CCOc1cc(NC(=O)NCC(F)(F)F)cc(-c2cnc3cc(-c4nnc(C)o4)ccn23)c1 [Compound F-15, 1-{3-Ethoxy-5-[7-(5-methyl-[1,3,4]oxadiazol-2-yl)-imidazo[1,2-a]pyridin-3-yl]-phenyl}-3-(2,2,2-trifluoro-ethyl)-urea] | 0.025 | 370 | 0.34 | – | – | 10 | – | – | 23 | – |
| CCNC(=O)Nc1cc(OC(C)C)cc(-c2cnc3cc(-c4nncs4)ccn23)c1 [Compound F-10, 1-Ethyl-3-[3-isopropoxy-5-(7-[1,3,4]thiadiazol-2-yl-imidazo[1,2-a]pyridin-3-yl)-phenyl]-urea] | 0.013 | 230 | 0.36 | – | – | 5 | – | – | 34 | – |
| CC(C)Oc1cc(NC(=O)NCC(F)(F)F)cc(-c2cnc3cc(C(=O)C4CC4)ccn23)c1 [Compound F-6, 1-[3-(7-Cyclopropanecarbonyl-imidazo[1,2-a]pyridin-3-yl)-5-isopropoxy-phenyl]-3-(2,2,2-trifluoro-ethyl)-urea] | 0.0012 | 31 | 0.074 | – | – | 3 | 5600 | – | – | – |
| Cc1nnc(-c2ccn3c(-c4cc(NC(=O)NCC(F)(F)F)cc(OC5CCC5)c4)cnc3c2)o1 [Compound F-11, 1-{3-Cyclobutoxy-5-[7-(5-methyl-[1,3,4]oxadiazol-2-yl)-imidazo[1,2-a]pyridin-3-yl]-phenyl}-3-(2,2,2-trifluoro-ethyl)-urea] | 0.046 | 520 | – | – | – | > 10 | – | – | 14 | 59 |
| Cc1nc(N)cc(-c2ccn3c(-c4cc(NC(=O)NCC(F)(F)F)cc(OC(C)C)c4)cnc3c2)n1 [Compound F-4, 1-{3-[7-(6-Amino-2-methyl-pyrimidin-4-yl)-imidazo[1,2-a]pyridin-3-yl]-5-isopropoxy-phenyl}-3-(2,2,2-trifluoro-ethyl)-urea] | – | – | 0.1 | 45.0 | 50.0 | 1 | – | – | 5 | – |

Second part, led by results:

| IC50 (FGFR3) [µM] | GI50 (Ba/F3-TEL-FGFR3 cells) [nM] | IC50 (VEGFR2) [µM] | FGFR3 IC50(μM) or % I (FGFR3; % I at 0.003 (unit not given)) [% at 0.003] | BaF3-TEL-FGFR3 prolif (μM) (Ba/F3-TEL-FGFR3 cells; % at 0.100 μM) [% at 0.100 μM] | SMILES | minimal effective concentration [1] [µM] | IC50 [2] [nM] | inhibition at 3 µM ([2]; Mus musculus, BaF3, 72 h, % at 3.00 μM) [%] | inhibition at 10 µM ([2]; Mus musculus, BaF3, 72 h) [%] | inhibition at 1 µM (VEGFR2; 1 h, % I at 1 μM) [%] |
| --- | --- | --- | --- | --- | --- | --- | --- | --- | --- | --- |
| 0.034 | 170 | 1.2 | – | – | CC(C)Oc1cc(NC(=O)NCC(F)(F)F)cc(-c2cnc3cc(-c4ccnc(C(F)(F)F)n4)ccn23)c1 [Compound F-8, 1-{3-Isopropoxy-5-[7-(2-trifluoromethyl-pyrimidin-4-yl)-imidazo[1,2-a]pyridin-3-yl]-phenyl}-3-(2,2,2-trifluoro-ethyl)-urea] | 5 | ~2000 | – | – | – |
| 0.0093 | 240 | 0.057 | – | – | COCc1cc(NC(=O)NCC(F)(F)F)cc(-c2cnc3cc(-c4ccnc(C(F)(F)F)n4)ccn23)c1 [Compound F-9, 1-{3-Methoxymethyl-5-[7-(2-trifluormethyl-pyrimidin-4-yl)-imidazo[1,2-a]pyridin-3-yl]-phenyl}-3-(2,2,2-trifluoro-ethyl)-urea] | 2 | – | 17 | – | – |
| 0.027 | 470 | 0.4 | – | – | CCOc1cc(NC(=O)NCC(F)(F)F)cc(-c2cnc3cc(-c4ccnc(C(F)(F)F)n4)ccn23)c1 [Compound F-16, 1-{3-Ethoxy-5-[7-(2-trifluoromethyl-pyrimidin-4-yl)-imidazo[1,2-a]pyridin-3-yl]-phenyl}-3-(2,2,2-trifluoro-ethyl)-urea] | > 10 | – | – | 32 | – |
